*1 amine or outer side, *2 acyl side, *3 side chain or, on linkers, in order; H or OH if unused. Where a SMILES comes first, the peptide text is derived from it. [ ]: non-standard residue; d: D form. Phe(4-I) = N[C@@H](Cc1ccc(I)cc1)C(=O)O; hLeu = CC(C)CC[C@H](N)C(=O)O; CO = O=C([*:1])[*:2]
Molecular target: recombinantly expressed PAS-B domain of HIF-1α (Homo sapiens (Human), UniProt Q16665)
Assay: MST binding affinity to PAS-B domain of HIF-1α
Details: microscale thermophoresis, 50 nM labelled protein, 10% DMSO
Description: MST experiments were performed on a Monolith NT.115 system (Nanotemper Technologies GmbH), in assay buffer containing 50 nM labelled protein, 10% DMSO and 0.05% TWEEN-20. MST measurements were performed using 50% LED and 50% MST power.

Sequence of recombinantly expressed PAS-B domain of HIF-1α (Q16665 228-298): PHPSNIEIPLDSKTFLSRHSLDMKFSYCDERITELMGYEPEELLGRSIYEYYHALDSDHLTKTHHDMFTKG

Row | Compound | Kd [µM]
1 | CNC(=O)N[C@@H](CCC(C)C)C(=O)N[C@@H](Cc1ccc(I)cc1)C(=O)N[C@@H](CS)C(N)=O [Example 5] ({NHMe-CO}-[hLeu]-[Phe(4-I)]-Cys-NH2) | > 50
2 | Cc1c(S(=O)(=O)N[C@@H](CCC(C)C)C(=O)N[C@@H](Cc2ccc(I)cc2)C(=O)N[C@@H](CS)C(N)=O)sc2ccc(Cl)cc12 [Example 28] | 8
3 | CC(C)CC[C@H](NS(=O)(=O)c1ccc(Cl)s1)C(=O)N[C@@H](Cc1ccc(I)cc1)C(=O)N[C@@H](CS)C(=O)NCCCCCN [Example 40] | 100
4 | CC(C)CC[C@H](NS(=O)(=O)c1cc(Cl)c(Cl)s1)C(=O)N[C@@H](Cc1ccc(I)cc1)C(=O)N[C@@H](CC(N)=O)C(=O)NCCCCl [Example 58] | > 500
5 | CC(C)CC[C@H](NS(=O)(=O)c1cc(Cl)c(Cl)s1)C(=O)N(C)[C@@H](Cc1ccc(I)cc1)C(=O)N[C@@H](CN)C(=O)NCCCCl [Example 59] | > 500
6 | CC(C)CC[C@H](NS(=O)(=O)c1cc(Cl)c(Cl)s1)C(=O)N[C@@H](Cc1ccc(I)cc1)C(=O)N[C@@H](CC(F)(F)F)C(=O)NCCCCl [Example 66] | > 125
7 | CC(C)CC[C@H](NS(=O)(=O)c1cc(Cl)c(Cl)s1)C(=O)N(C)[C@@H](Cc1ccc(I)cc1)C(=O)N[C@@H](CN1CCOCC1)C(=O)NCCCCl [Example 67] | > 500
8 | CC(C)CC[C@H](NS(=O)(=O)c1cc(Cl)c(Cl)s1)C(=O)N[C@@H](Cc1ccc(I)cc1)C(=O)N[C@@H](CS(N)(=O)=O)C(=O)NCCCCl [Example 68] | > 500
9 | CNC[C@H](NC(=O)[C@H](Cc1ccc(I)cc1)NC(=O)[C@H](CCC(C)C)NS(=O)(=O)c1cc(Cl)c(Cl)s1)C(=O)NCCCCl [Example 72] | > 500

Reference: patent publication US20250326790A1, “PEPTIDES BINDING TO HYPOXIA INDUCIBLE FACTORS AND THEIR USE” (UNIVERSITY OF SOUTHAMPTON, priority 2021, published 2025)
